Source: paper PMC9646841, “A bead-based GPCR phosphorylation immunoassay for high-throughput ligand profiling and GRK inhibitor screening” (Communications Biology, 2022)
Several values for one entry are separate records, joined by “and”; a condition that tells them apart may be missing. Equal values may be shown once. Square brackets hold non-standard residues; d marks the D form. Peptide text beside a SMILES is read from it. Cha = N[C@@H](CC1CCCCC1)C(=O)O; dCha = N[C@H](CC1CCCCC1)C(=O)O

What was measured:
Assay type in all cases: cell-based
[1] = biological target: T1, C5a1 (Homo sapiens, UniProt P21730); experiment: pT324/pS327-C5a1 7TM phosphorylation assay; details: for Emax: read-out: Emax (% Control C028) pT324/pS327-C5a1
T1 construct: host or cells: Control-HEK293, ΔGRK2/3-HEK293, ΔGRK5/6-HEK293, stably expressing
T1 sequence (P21730 1-350): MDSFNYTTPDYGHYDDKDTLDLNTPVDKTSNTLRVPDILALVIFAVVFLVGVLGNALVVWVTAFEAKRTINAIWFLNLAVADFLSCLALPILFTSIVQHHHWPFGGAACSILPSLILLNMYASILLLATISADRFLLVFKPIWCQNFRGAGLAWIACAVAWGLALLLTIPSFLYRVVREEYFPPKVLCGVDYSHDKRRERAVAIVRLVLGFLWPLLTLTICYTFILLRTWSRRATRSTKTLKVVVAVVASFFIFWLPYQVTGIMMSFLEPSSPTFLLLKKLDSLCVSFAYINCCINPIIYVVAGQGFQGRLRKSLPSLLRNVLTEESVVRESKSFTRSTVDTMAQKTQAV

[2] = biological target: T1, C5a1; experiment: pS332/pS334-C5a1 7TM phosphorylation assay; details: for Emax: read-out: Emax (% Control C028) pS332/pS334-C5a1
[3] = biological target: T1, C5a1; experiment: pS338/pT339-C5a1 7TM phosphorylation assay
[4] = Control-C5aR1-HEK293, C028 3 µM
[5] = Control-C5aR1-HEK293, C028 10 µM (concentration series)
[6] = ΔGRK2/3-C5aR1-HEK293, C028 0.01 µM
[7] = ΔGRK2/3-C5aR1-HEK293, C028 0.3 µM
[8] = ΔGRK2/3-C5aR1-HEK293, C028 10 µM (concentration series)
[9] = ΔGRK5/6-C5aR1-HEK293, C028 0.01 µM
[10] = ΔGRK5/6-C5aR1-HEK293, C028 0.1 µM
[11] = C028 0.01 µM, Control-C5aR1-HEK293
[12] = C028 0.01 µM, ΔGRK2/3-C5aR1-HEK293
[13] = C028 0.01 µM, ΔGRK5/6-C5aR1-HEK293
[14] = C028 0.1 µM, ΔGRK5/6-C5aR1-HEK293
[15] = C028 3 µM, Control-C5aR1-HEK293

`N=C(N)NCCC[C@@H](NC(=O)[C@H](CC1CCCCC1)NC(=O)[C@@H](CC1CCCCC1)NC(=O)[C@@H]1CCCN1C(=O)[C@H](CCCCN)NC(=O)[C@@H](N)Cc1ccccc1)C(=O)O` [C028, FKP-(D-Cha)-Cha-r] (H-FKP[dCha][Cha][dR]-OH) was tested, and the “OD405 max pT324/pS327-C5a1” value [1] was 1.26, the “OD405 min pT324/pS327-C5a1” value [1] was 0.01 and the “pT324/pS327 phosphorylation, normalized” value ([1]; Control-C5aR1-HEK293, C028 0.01 µM) was 6.54% and 2.09% and 2.38% and -0.26% and 4.73% and 4.23% and 0.13% and 0.29%. The “pT324/pS327-C5aR1 Phosphorylation Assay, raw signal” value ([1]; Control-C5aR1-HEK293, C028 0.1 µM) was 0.2603 and 0.2849 and 0.4452 and 0.4009 and 0.2355 and 0.392 and 0.2309 and 0.3621, the “pT324/pS327-C5aR1 Phosphorylation Assay, raw signal” value [1, 4] was 0.8349 and 0.7369 and 1.3757 and 1.2873 and 1.162 and 1.2785 and 0.8805 and 0.8562 and the “pT324/pS327 phosphorylation, normalized” value [1, 4] was 120.88% and 95.08% and 81.14% and 86.44% and 112.69% and 137.00% and 71.21% and 88.89%. The “pT324/pS327 phosphorylation, normalized” value [1, 5] was 119.78% and 104.86% and 86.39% and 115.09% and 117.11% and 104.93% and 106.33% and 104.22%, the Emax ([1]; Control-HEK293) was 100% and the EC50 ([1]; pEC50 pT324/pS327-C5a1, Control-HEK293) was 501 nM. The EC50 ([1]; pEC50 pT324/pS327-C5a1, ΔGRK2/3-HEK293) was 631 nM, the “pT324/pS327-C5aR1 Phosphorylation Assay, raw signal” value [1, 6] was 0.1906 and 0.2011 and 0.1388 and 0.1623 and 0.1923 and 0.1741 and 0.2414 and 0.2236 and the “pT324/pS327 phosphorylation, normalized” value [1, 6] was 5.63% and 2.70% and -1.25% and 2.28% and 0.48% and 3.13% and 6.18% and 3.90%. The “pT324/pS327-C5aR1 Phosphorylation Assay, raw signal” value ([1]; ΔGRK2/3-C5aR1-HEK293, C028 0.1 µM) was 0.3121 and 0.3742 and 0.1921 and 0.224 and 0.2885 and 0.3186 and 0.3064, the “pT324/pS327-C5aR1 Phosphorylation Assay, raw signal” value [1, 7] was 0.5648 and 0.5979 and 0.3035 and 0.3146 and 0.4385 and 0.4523 and 0.4291 and 0.4848 and the “pT324/pS327 phosphorylation, normalized” value [1, 7] was 24.79% and 33.69% and 32.00% and 35.01% and 19.88% and 27.63% and 33.40% and 34.58%. For the same compound, the “pT324/pS327 phosphorylation, normalized” value ([1]; ΔGRK2/3-C5aR1-HEK293, C028 1 µM) was 57.50% and 41.29% and 46.21% and 58.02% and 41.79% and 38.21% and 68.95% and 53.84%, the “pT324/pS327-C5aR1 Phosphorylation Assay, raw signal” value ([1]; ΔGRK2/3-C5aR1-HEK293, C028 3 µM) was 0.9175 and 0.9435 and 0.5986 and 0.5479 and 0.9015 and 0.9692 and 0.812 and 0.8433 and the “pT324/pS327-C5aR1 Phosphorylation Assay, raw signal” value [1, 8] was 0.9308 and 0.9846 and 0.7517 and 0.6067 and 1.0697 and 0.9407 and 1.15 and 0.9163. The “pT324/pS327 phosphorylation, normalized” value [1, 8] was 96.12% and 84.19% and 64.50% and 63.55% and 84.08% and 59.71% and 82.71% and 58.42%, the Emax ([1]; ΔGRK2/3-HEK293) was 79.8% and the “pT324/pS327-C5aR1 Phosphorylation Assay, raw signal” value [1, 9] was 0.1198 and 0.124 and 0.1546 and 0.0999 and 0.1081 and 0.164 and 0.1821. The “pT324/pS327 phosphorylation, normalized” value [1, 9] was -1.74% and -1.49% and 1.46% and 0.52% and 6.96% and 2.95% and -0.44% and 0.0738%, the “pT324/pS327-C5aR1 Phosphorylation Assay, raw signal” value [1, 10] was 0.1319 and 0.1326 and 0.1302 and 0.1434 and 0.1164 and 0.1306 and 0.173 and 0.1664 and the “pT324/pS327 phosphorylation, normalized” value [1, 10] was -0.96% and 0.29% and 1.64% and 0.38% and 2.18% and 3.49% and 1.29% and 7.61%. For the same compound, the “pT324/pS327-C5aR1 Phosphorylation Assay, raw signal” value ([1]; ΔGRK5/6-C5aR1-HEK293, C028 0.3 µM) was 0.1652 and 0.1629 and 0.1483 and 0.1906 and 0.1747 and 0.2126 and 0.1807, the Emax ([1]; ΔGRK5/6-HEK293) was 27.8% and the “OD405 max pS332/pS334-C5a1” value [2] was 1.06. The “OD405 min pS332/pS334-C5a1” value [2] was 0.11, the pS332/pS334 normalized [2, 5] was 95.44% and 132.42% and 80.61% and 80.15% and 121.12% and 109.12% and 102.49% and 106.48% and the “pS332/pS334 (raw signal)” value ([2]; Control-C5aR1-HEK293 run beside the ΔGRK2/3 block, C028 10 µM) was 0.7901 and 0.7373 and 0.8202 and 0.7545 and 1.029 and 1.2201. For the same compound, the Emax ([2]; Control-HEK293) was 100%, the EC50 ([2]; pEC50 pS332/pS334-C5a1, Control-HEK293) was 398 nM and the EC50 ([2]; pEC50 pS332/pS334-C5a1, ΔGRK2/3-HEK293) was 501 nM. For the same compound, the “pS332/pS334 (raw signal)” value ([2]; ΔGRK2/3-C5aR1-HEK293, C028 0.01 µM, concentration series) was 0.1764 and 0.1748 and 0.1484 and 0.1388 and 0.1181 and 0.1479 and 0.1441, the “pS332/pS334 (raw signal)” value ([2]; ΔGRK2/3-C5aR1-HEK293, C028 1 µM, concentration series) was 0.699 and 0.3955 and 0.6071 and 0.387 and 0.4065 and 0.4411 and 0.6614 and 0.6847 and the “pS332/pS334 (raw signal)” value ([2]; ΔGRK2/3-C5aR1-HEK293, C028 10 µM, first 0/10 µM column pair) was 0.4715 and 0.6645 and 0.5267 and 0.3753 and 0.6914 and 0.6912 and 0.5711 and 0.6282. For the same compound, the Emax ([2]; ΔGRK2/3-HEK293) was 70.2%, the Emax ([2]; ΔGRK5/6-HEK293) was 50.8% and the “OD405 max pS338/pT339-C5a1” value [3] was 0.97. The “OD405 min pS338/pT339-C5a1” value [3] was 0.05, the pS338/pS339 normalized [3, 11] was 0.99% and 0.92% and 2.21% and 3.33% and 1.14% and 2.13% and -1.29% and -0.74% and the “pS338/pS339 signal, raw” value [3, 11] was 0.1155 and 0.1223 and 0.1459 and 0.1501 and 0.1235 and 0.1345 and 0.146 and 0.1476. The pS338/pS339 normalized [3, 12] was 2.29% and 0.59% and -0.76% and -0.97% and -2.55% and -1.82% and -0.06% and 0.89%, the “pS338/pS339 signal, raw” value [3, 12] was 0.0952 and 0.0932 and 0.1355 and 0.1425 and 0.1714 and 0.1765 and 0.119 and 0.1119 and the pS338/pS339 normalized [3, 13] was -0.52% and 1.83% and 5.79% and 7.02% and 0.41% and 6.78% and -2.15% and -0.66%. The “pS338/pS339 signal, raw” value [3, 13] was 0.1914 and 0.1791 and 0.1104 and 0.1268 and 0.0959 and 0.1124 and 0.1275 and 0.1571, the “pS338/pS339 signal, raw” value ([3]; C028 0.1 µM, Control-C5aR1-HEK293) was 0.1875 and 0.2099 and 0.2083 and 0.1715 and 0.263 and 0.2723 and 0.28 and 0.2721 and the pS338/pS339 normalized ([3]; C028 0.1 µM, ΔGRK2/3-C5aR1-HEK293) was 4.55% and 4.75% and 2.09% and -0.74% and 0.95% and 1.57% and 2.54% and 3.37%. For the same compound, the pS338/pS339 normalized [3, 14] was 6.77% and 12.22% and 6.57% and 4.14% and 6.71% and 9.50% and 2.76% and 5.82%, the “pS338/pS339 signal, raw” value [3, 14] was 0.1912 and 0.1825 and 0.1703 and 0.1709 and 0.1421 and 0.1595 and 0.2215 and 0.2673 and the pS338/pS339 normalized [3, 15] was 78.61% and 86.74% and 85.12% and 75.44% and 123.11% and 90.88% and 72.00% and 99.45%. For the same compound, the “pS338/pS339 signal, raw” value [3, 15] was 0.8634 and 0.695 and 1.1554 and 0.7958 and 0.9051 and 1.0337 and 0.9787 and 0.9442, the pS338/pS339 normalized ([3]; C028 10 µM, Control-C5aR1-HEK293, concentration series) was 92.58% and 105.20% and 87.15% and 107.72% and 114.82% and 97.73% and 96.48% and 106.05% and the “pS338/pS339 signal, raw” value ([3]; C028 10 µM, Control-C5aR1-HEK293, last 0/10 µM pair of Control block) was 0.8171 and 0.9223 and 0.6743 and 0.8573 and 1.0399 and 1.1081. The “pS338/pS339 signal, raw” value ([3]; C028 10 µM, Control-C5aR1-HEK293 beside ΔGRK5/6 block) was 1.1983 and 1.0585 and 0.7547 and 0.8921 and 1.3122 and 1.2783 and 1.4177 and 1.3015.
